Measurements from patent US9586951B2 (FUJIFILM Corporation, priority 2013, dated 2017).

What follows are compounds tested against T1, ATM (Homo sapiens, UniProt Q13315) (assay: ATM inhibition test (phosphorylation of Chk2 generated by ionizing radiation, AlphaScreen SureFire)). Conditions: phosphorylated Chk2 in NCI-H460 cells, ionizing radiation 8Gy, 1 hour after test compound treatment; read-out: ATM inhibitory activity.
T1 construct: detecting phosphorylation of Chk2 in a human non-small cell lung cancer cell line NCI-H460 (ATCC company); host or cells: NCI-H460 human non-small cell lung cancer cells
T1 sequence (Q13315 whole entry): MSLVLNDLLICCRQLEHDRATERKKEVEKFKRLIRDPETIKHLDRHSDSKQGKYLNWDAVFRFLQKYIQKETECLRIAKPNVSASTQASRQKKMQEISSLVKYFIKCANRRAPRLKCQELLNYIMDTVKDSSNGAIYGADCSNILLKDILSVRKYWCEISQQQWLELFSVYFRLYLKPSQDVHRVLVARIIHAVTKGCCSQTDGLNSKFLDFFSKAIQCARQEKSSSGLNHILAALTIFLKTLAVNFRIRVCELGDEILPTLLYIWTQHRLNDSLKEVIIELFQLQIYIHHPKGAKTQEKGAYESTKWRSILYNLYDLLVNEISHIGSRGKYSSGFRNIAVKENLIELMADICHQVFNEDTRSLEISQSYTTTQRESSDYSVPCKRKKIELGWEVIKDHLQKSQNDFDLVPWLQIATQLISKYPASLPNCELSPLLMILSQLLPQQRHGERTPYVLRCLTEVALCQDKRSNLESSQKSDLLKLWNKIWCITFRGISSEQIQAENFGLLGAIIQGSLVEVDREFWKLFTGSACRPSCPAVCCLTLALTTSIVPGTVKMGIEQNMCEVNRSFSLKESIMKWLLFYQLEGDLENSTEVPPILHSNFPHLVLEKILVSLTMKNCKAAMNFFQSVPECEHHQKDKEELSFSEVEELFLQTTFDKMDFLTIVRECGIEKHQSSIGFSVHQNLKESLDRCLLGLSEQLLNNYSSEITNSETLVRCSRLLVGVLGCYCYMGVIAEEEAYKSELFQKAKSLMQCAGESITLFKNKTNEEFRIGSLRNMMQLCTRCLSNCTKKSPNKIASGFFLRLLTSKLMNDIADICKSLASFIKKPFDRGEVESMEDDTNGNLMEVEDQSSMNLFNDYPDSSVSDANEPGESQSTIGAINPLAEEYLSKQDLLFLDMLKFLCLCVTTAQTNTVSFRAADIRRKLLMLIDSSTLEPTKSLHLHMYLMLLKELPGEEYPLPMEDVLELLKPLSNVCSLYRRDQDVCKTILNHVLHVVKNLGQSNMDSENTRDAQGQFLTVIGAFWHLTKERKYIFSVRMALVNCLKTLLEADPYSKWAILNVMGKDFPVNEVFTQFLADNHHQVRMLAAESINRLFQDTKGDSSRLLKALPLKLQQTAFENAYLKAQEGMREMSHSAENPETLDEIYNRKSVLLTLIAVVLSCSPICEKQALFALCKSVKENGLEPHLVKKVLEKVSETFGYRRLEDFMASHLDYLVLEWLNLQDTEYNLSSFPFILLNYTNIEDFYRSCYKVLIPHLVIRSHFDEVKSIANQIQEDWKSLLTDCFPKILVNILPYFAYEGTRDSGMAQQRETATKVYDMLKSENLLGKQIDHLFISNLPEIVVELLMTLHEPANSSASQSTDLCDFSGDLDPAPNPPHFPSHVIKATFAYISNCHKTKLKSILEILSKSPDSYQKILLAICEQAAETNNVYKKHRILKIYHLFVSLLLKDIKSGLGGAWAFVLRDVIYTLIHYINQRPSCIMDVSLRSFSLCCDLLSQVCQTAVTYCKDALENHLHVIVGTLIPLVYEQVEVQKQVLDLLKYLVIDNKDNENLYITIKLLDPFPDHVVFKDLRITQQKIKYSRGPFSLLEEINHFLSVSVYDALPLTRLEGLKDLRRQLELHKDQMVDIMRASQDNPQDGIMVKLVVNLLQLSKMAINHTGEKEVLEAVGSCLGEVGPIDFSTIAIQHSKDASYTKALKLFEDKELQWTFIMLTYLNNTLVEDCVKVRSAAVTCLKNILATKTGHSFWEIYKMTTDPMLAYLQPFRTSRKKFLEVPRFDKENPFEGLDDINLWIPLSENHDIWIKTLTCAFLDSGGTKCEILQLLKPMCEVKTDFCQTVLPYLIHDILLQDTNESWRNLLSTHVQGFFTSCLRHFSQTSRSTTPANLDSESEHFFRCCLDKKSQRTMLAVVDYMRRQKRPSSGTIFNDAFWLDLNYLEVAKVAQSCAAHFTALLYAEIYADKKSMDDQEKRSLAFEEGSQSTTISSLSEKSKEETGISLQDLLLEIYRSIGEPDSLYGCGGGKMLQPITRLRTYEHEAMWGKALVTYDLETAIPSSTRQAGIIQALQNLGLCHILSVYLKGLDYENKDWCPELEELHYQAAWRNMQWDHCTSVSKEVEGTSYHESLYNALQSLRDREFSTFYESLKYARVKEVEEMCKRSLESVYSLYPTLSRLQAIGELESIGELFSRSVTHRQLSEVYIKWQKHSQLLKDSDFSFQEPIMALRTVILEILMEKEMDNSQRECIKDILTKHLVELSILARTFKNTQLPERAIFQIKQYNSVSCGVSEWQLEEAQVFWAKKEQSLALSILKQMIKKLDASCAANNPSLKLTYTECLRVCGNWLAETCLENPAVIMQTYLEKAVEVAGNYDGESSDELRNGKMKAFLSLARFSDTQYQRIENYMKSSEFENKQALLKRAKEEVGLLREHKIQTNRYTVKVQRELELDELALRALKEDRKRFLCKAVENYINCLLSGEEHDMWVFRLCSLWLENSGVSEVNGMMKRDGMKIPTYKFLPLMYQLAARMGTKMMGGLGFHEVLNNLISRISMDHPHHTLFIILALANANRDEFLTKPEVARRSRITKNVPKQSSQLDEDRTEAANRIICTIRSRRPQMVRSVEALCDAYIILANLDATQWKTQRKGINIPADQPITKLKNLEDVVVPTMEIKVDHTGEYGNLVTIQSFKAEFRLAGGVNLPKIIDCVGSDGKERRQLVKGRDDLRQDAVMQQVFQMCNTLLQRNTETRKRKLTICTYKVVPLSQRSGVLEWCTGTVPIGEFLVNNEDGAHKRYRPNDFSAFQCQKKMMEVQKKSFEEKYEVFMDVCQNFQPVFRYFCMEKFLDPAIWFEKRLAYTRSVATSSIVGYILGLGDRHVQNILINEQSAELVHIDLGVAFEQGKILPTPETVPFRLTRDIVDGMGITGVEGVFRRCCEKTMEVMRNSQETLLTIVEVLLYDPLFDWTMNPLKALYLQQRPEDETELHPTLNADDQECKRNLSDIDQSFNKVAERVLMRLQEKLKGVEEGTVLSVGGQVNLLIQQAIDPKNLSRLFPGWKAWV
Format: cell-based
Procedure, shortened: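 Phosphorylated Chk2 read by AlphaScreen SureFire in human non-small cell lung cancer NCI-H460 cells, 1 hour after 8Gy ionizing radiation at 37° C. Compound added 1 hour before irradiation. Percent inhibition normalised between irradiated and non-irradiated drug-untreated signals.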
`Cc1cnc(C(CCN(C)C)Nc2ccc3c(c2)Cc2cccc(-c4cc(=O)cc(N5CCOCC5)o4)c2O3)cn1` (single isomer, unassigned) [Example 12-6, 2-(7-((3-(Dimethylamino)-1-(5-methylpyrazine-2-yl)propyl)amino)-9H-xanthen-4-yl)-6-morpholino-4H-pyran-4-one] showed an IC50 of 100 to 500 nM. With `CCOC(=O)CNc1ccc2c(c1)Cc1cccc(-c3cc(N4CCOCC4)cc(=O)[nH]3)c1O2` [Example 2-14-71, Ethyl 2-((5-(4-morpholino-6-oxo-1,6-dihydropyridin-2-yl)-9H-xanthen-2-yl)amino) acetate] the IC50 was 100 to 500 nM. `O=c1cc(N2CCOCC2)cc(-c2cccc3c2Oc2ccc(NCc4ccncc4Cl)cc2C3)[nH]1` [Example 2-2-25, 6-(7-(((3-Chloropyridin-4-yl)methyl)amino)-9H-xanthen-4-yl)-4-morpholino pyridin-2 (1H)-one] showed an IC50 of 100 to 500 nM. Compound `Cc1cccc(C(C)Nc2ccc3c(c2)Cc2ccnc(-c4cc(N5CCOCC5)cc(=O)[nH]4)c2O3)n1` (stereo not drawn) [Example 2-42-6, 6-(7-((1-(6-Methylpyridin-2-yl)ethyl)amino)-5H-chromeno[2,3-c]pyridin-1-yl)-4-morpholinopyridin-2(1H)-one] has an IC50 of 100 to 500 nM. `N#Cc1cccc(CNc2ccc3c(c2)Cc2ccnc(-c4cc(N5CCOCC5)cc(=O)[nH]4)c2O3)n1` [Example 2-41-15, 6-(((1-(4-Morpholino-6-oxo-1,6-dihydropyridin-2-yl)-5H-chromeno[2,3-c]pyridin-7-yl)amino)methyl)picolinonitrile] gave an IC50 of 100 to 500 nM. Compound `Cc1cccc(C(CNC(=O)OC(C)(C)C)Nc2ccc3c(c2)Cc2cccc(-c4cc(N5CCOCC5)cc(=O)[nH]4)c2O3)n1` (stereo not drawn) [Example 2-14-46] has an IC50 of 100 to 500 nM. `O=c1cc(N2CCOCC2)cc(-c2cccc3c2Oc2ccc(NC4CCN(CC5CCCCC5)CC4)cc2C3)[nH]1` [Example 2-28-35, 6-(7-((1-(Cyclohexylmethyl)piperidin-4-yl)amino)-9H-xanthen-4-yl)-4-morpholino pyridin-2(1H)-one] was tested, and the IC50 was 100 to 500 nM. `Nc1ccc2c(c1)Cc1c(F)ccc(-c3cc(N4CCOCC4)cc(=O)[nH]3)c1O2` [Example 2-43, 6-(7-Amino-1-fluoro-9H-xanthen-4-yl)-4-morpholinopyridin-2(1H)-one] showed an IC50 of 500 to 2000 nM. Compound `COC[C@H](CN1[C@H](C)CCC[C@@H]1C)Nc1ccc2c(c1)Sc1cccc(-c3cc(N4CCOCC4)cc(=O)[nH]3)c1S2` [Example 1-46-13, 6-(7-(((S)-1-((2R,6S)-2,6- Dimethylpiperidin-1-yl)-3-methoxypropan-2-yl)amino)thianthren-1-yl)-4-morpholino pyridin-2(1H)-one] has an IC50 of 100 to 500 nM. For `Nc1ncc(CNc2ccc3c(c2)Cc2cccc(-c4cc(N5CCOCC5)cc(=O)[nH]4)c2O3)cn1` [Example 2-2-15, 6-(7-(((2-Aminopyrimidin-5-yl)methyl)amino)-9H-xanthen-4-yl)-4-morpholino pyridin-2(1H)-one], the IC50 was 500 to 2000 nM. In the case of `COc1ccc(CNc2ccc3c(c2)Sc2cccc(-c4cc(N5CCOCC5)cc(=O)[nH]4)c2S3)cn1` [Example 1-12-16, 6-(7-(((6-Methoxypyridin-3-yl)methyl)amino)thianthren-1-yl)-4-morpholino pyridin-2 (1H)-one], the IC50 is reported as 100 to 500 nM. Work on `O=c1cc(N2CCOCC2)cc(-c2cccc3c2Oc2ccc(NCc4cccc(C5CC5)n4)cc2S3)[nH]1` [Example 4-4-21, 6-(8-(((6-Cyclopropylpyridin-2-yl)methyl)amino)phenoxathiin-4-yl)-4-morpholino pyrdin-2(1H)-one] yielded an IC50 of 100 to 500 nM. Work on `CN1CC(Nc2ccc3c(c2)Sc2cccc(-c4cc(N5CCOCC5)cc(=O)[nH]4)c2S3)C(N2CCOCC2)C1` (racemic) [Example 11-2, 6-(7-((1-Methyl-4-morpholinopyrrolidin-3-yl)amino)thianthren-1-yl)-4-morpholinopyridin-2(1H)-one] yielded an IC50 of 100 to 500 nM. For `CC(C)CC(Nc1ccc2c(c1)Sc1cccc(-c3cc(N4CCOCC4)cc(=O)[nH]3)c1S2)[C@H](C)N` (stereo partly drawn) [Example 1-20-4, 6-(7-(((2S)-2-Amino-5-methylhexan-3-yl)amino)thianthren-1-yl)-4-morpholino pyridin-2(1H)-one], the IC50 was 500 to 2000 nM. With `CC(CN(C)C1CCCCC1)Nc1ccc2c(c1)Sc1cccc(-c3cc(N4CCOCC4)cc(=O)[nH]3)c1S2` (stereo not drawn) [Example 1-13-9, 6-(7-((1-(Cyxlohexyl(methyl)amino)propan-2-yl)amino)thianthren-1-yl)-4-morpholino pyridin-2(1H)-one] the IC50 was 100 to 500 nM. `Cc1cncc(CNc2ccc3c(c2)Cc2cccc(-c4cc(N5CCOCC5)cc(=O)[nH]4)c2O3)n1` [Example 2-14-74, 6-(7-(((6-Methylpyrazin-2-yl)methyl)amino)-9H-xanthen-4-yl)-4-morpholino pyridin-2(1H)-one] showed an IC50 of 100 to 500 nM. Work on `CCCCC(Nc1ccc2c(c1)Sc1cccc(-c3cc(N4CCOCC4)cc(=O)[nH]3)c1S2)[C@H](C)N1CCOCC1` (stereo partly drawn) [Example 1-21-2, 4-Morpholino-6-(7-(((2S)-2-morpholinoheptan-3-yl)amino)thianthren-1-yl) pyridin-2(1H)-one] yielded an IC50 of 100 to 500 nM. `Cc1csc(CNc2ccc3c(c2)Cc2cccc(-c4cc(N5CCOCC5)cc(=O)[nH]4)c2O3)c1` [Example 2-14-41, 6-(7-(((4-Methylthiophen-2-yl)methyl)amino)-9H-xanthen-4-yl)-4-morpholino pyridin-2(1H)-one] gave an IC50 of 100 to 500 nM. In the case of `CCN(C)CCC(Nc1ccc2c(c1)Sc1cccc(-c3cc(N4CCOCC4)cc(=O)[nH]3)c1S2)c1ccc(C)cn1` (single isomer, unassigned) [Example 1-51-9, 6-(7-((3-(Ethyl(methyl)amino)-1-(5-methylpyridin-2-yl)propyl)amino)thianthren-1-yl)-4-morpholino pyridin-2 (1H)-one], the IC50 is reported as less than 100 nM. `O=c1cc(N2CCOCC2)cc(-c2cccc3c2Sc2ccc(NC(CO)CN4CCOCC4)cc2S3)[nH]1` (stereo not drawn) [Example 1-37-2, 6-(7-((1-Hydroxy-3-morpholinopropan-2-yl)amino)thianthren-1-yl)-4-morpholino pyridin-2(1H)-one] showed an IC50 of 100 to 500 nM. In the case of `O=c1cc(N2CCOCC2)cc(-c2cccc3c2Oc2ccc(NC4CCN(CCc5ccccn5)CC4)cc2C3)[nH]1` [Example 2-30-3, 4-Morpholino-6-(7-((1-(2-(pyridin-2-yl)ethyl)piperidin-4-yl)amino)-9H-xanthen-4-yl)pyridin-2(1H)-one], the IC50 is reported as 500 to 2000 nM. With `CCCCN1CCC(Nc2ccc3c(c2)Cc2cccc(-c4cc(N5CCOCC5)cc(=O)[nH]4)c2O3)C1` (stereo not drawn) [Example 2-19-8, 6-(7-((1-Butylpyrrolidin-3-yl)amino)-9H-xanthen-4-yl)-4-morpholinopyridin-2(1H)-one] the IC50 was 100 to 500 nM. Work on `CN(C)CC(CN1CCOCC1)Nc1ccc2c(c1)Sc1cccc(-c3cc(N4CCOCC4)cc(=O)[nH]3)c1S2` (stereo not drawn) [Example 9-3, 6-(7-((1-(Dimethylamino)-3-morpholinopropan-2-yl)amino)thianthren-1-yl)-4-morpholinopyridin-2(1H)-one] yielded an IC50 of 500 to 2000 nM. In the case of `Cc1cccc(C(CN)Nc2ccc3c(c2)Sc2cccc(-c4cc(N5CCOCC5)cc(=O)[nH]4)c2S3)n1` (stereo not drawn) [Example 1-19-2, 6-(7-((2-Amino-1-(6-methylpyridin-2-yl)ethyl)amino)thianthren-1-yl)-4-morpholinopyridin-2(1H)-one], the IC50 is reported as 100 to 500 nM. For `COCC[C@H](CN1CCOCC1)Nc1ccc2c(c1)Sc1cccc(-c3cc(N4CCOCC4)cc(=O)[nH]3)c1S2` [Example 1-59-1, (R)-6-(7-((4-methoxy-1-morpholinobutan-2-yl)amino)thianthren-1-yl)-4-morpholinopyridin-2(1H)-one], the IC50 was less than 100 nM. `N#Cc1cccc(CNc2ccc3c(c2)Cc2cccc(-c4cc(N5CCOCC5)cc(=O)[nH]4)c2O3)c1` [Example 2-3-15, 3-(((5-(4-Morpholino-6-oxo-1,6-dihydropyridin-2-yl)-9H-xanthen-2-yl)amino)methyl) benzonitrile] showed an IC50 of 100 to 500 nM. Work on `COc1cncc(CNc2ccc3c(c2)Cc2cccc(-c4cc(N5CCOCC5)cc(=O)[nH]4)c2N3C)c1` [Example 7, 6-(7-(((5-Methoxypyridin-3-yl)methyl)amino)-10-methyl-9,10-dihydroacridin-4-yl)-4-morpholinopyridin-2(1H)-one] yielded an IC50 of 500 to 2000 nM. Work on `Cc1ccc(C(Nc2ccc3c(c2)Sc2cccc(-c4cc(N5CCOCC5)cc(=O)[nH]4)c2S3)C2CNCCO2)nc1` (single isomer, unassigned) [Example 1-55-1, 6-(7-(((5-methylpyridin-2-yl)(morpholin-2-yl)methyl)amino)thianthren-1-yl)-4-morpholinopyridin-2(1H)-one] yielded an IC50 of less than 100 nM. For `O=c1cc(N2CCOCC2)cc(-c2cccc3c2Sc2ccc(NC4CCCN(Cc5ccncc5)C4)cc2S3)[nH]1` (stereo not drawn) [Example 1-24-4, 4-Morpholino-6-(7-((1-(pyridin-4-ylmethyl)piperidin-3-yl)amino)thianthren-1-yl)pyridin-2 (1H)-one], the IC50 was less than 100 nM. For `O=c1cc(N2CCOCC2)cc(-c2cccc3c2Oc2ccc(NC4CCCNC4)cc2S3)[nH]1` (stereo not drawn) [Example 4-5, 4-morpholino-6-(8-(piperidin-3-ylamino)phenoxathiin-4-yl)pyridin-2(1H)-one], the IC50 was 500 to 2000 nM. For `CN1CCC(Nc2ccc3c(c2)Sc2cccc(-c4cc(N5CCOCC5)cc(=O)[nH]4)c2S3)C1` (stereo not drawn) [Example 1-31-1, 6-(7-((1-Methylpyrrolidin-3-yl)amino)thianthren-1-yl)-4-morpholinopyridin-2(1H)-one], the IC50 was 100 to 500 nM. With `Cc1ccc(C(Nc2ccc3c(c2)Cc2cccc(-c4cc(N5CCOCC5)cc(=O)[nH]4)c2O3)[C@H]2CN(C)CCO2)nc1` (stereo partly drawn) [Example 2-67, 6-(7-((((R)-4-methylmorpholin-2-yl)(5-methylpyridin-2-yl)methyl)amino)-9H-xanthen-4-yl)-4-morpholinopyridin-2(1H)-one] the IC50 was less than 100 nM. With `O=c1cc(N2CCOCC2)cc(-c2cccc3c2Oc2ccc(NCc4ccccn4)cc2S3)[nH]1` [Example 4-4-24, 4-Morpholino-6-(8-((pyridin-2-ylmethyl)amino)phenoxathiin-4-yl) pyridin-2(1H)-one] the IC50 was 100 to 500 nM.
